# From US5972950A, “1,2-diarylmethylene derivatives, their methods of preparation and their uses in therapeutics” (Laboratories UPSA, priority 1996, dated 1999)
# Key:
# [1] = tested on: pain response in kaolin arthritis; experiment: arthritis with kaolin (analgesic activity) in rats; assay type: in vivo; conditions: rat, oral, pain response 5 hours 30 minutes after administration, n=10
# Procedure: The analgesic activity is evaluated in rats by the test of arthritis with kaolin. Thirty minutes after intra-articular administration of an aqueous 10% suspension of kaolin, the product is administered orally at a rate of 1 ml/100 g (n=10 animals per dose).
# COX-1 = experiment: inhibition of COX-1 enzymatic activity (PGE2 by EIA); assay type: biochemical; conditions: purified enzyme from ram seminal vesicles, mean ± standard deviation, 4 determinations
# Procedure: (§1) Inhibition Of The COX-1 and COX-2 Enzymatic Activities The molecule studied is preincubated for 10 minutes at 25° C. with 2 U of COX-1 (purified enzyme from ram seminal vesicles) or 1 U of COX-2 (purified enzyme from ewe placenta). Arachidonic acid (6 μM for COX-1, 4, μM for COX-2) is added to the reaction medium and incubation is carried out for 5 minutes at 25° C. When incubation has ended, the enzymatic reaction is stopped by the addition of 1 N HCl and the PGE2 produced is determined by EIA. The results are expressed as the percentage inhibition of the COX-1 and COX-2 enzymatic activities and correspond to mean (±) standard deviations from the average of 4 determinations.
# [2] = tested on: carrageenan-induced paw oedema; experiment: oedema with carrageenan (anti-inflammatory activity) in rats; assay type: in vivo; conditions: rat, oral, oedema volume 3 hours after carrageenan, n=6
# Procedure: Anti-Inflammatory Activity
# The anti-inflammatory activity is evaluated in rats by the test of oedema with carrageenan. The product is administered orally at a rate of 2.5 ml/100 g (n=6 animals per dose) 2 hours 30 minutes after a water overload taken orally (2.5 ml/ 100 g). One hour after administration of the product, the oedema is induced by plantar subcutaneous injection of aqueous 2% carrageenan solution.
# COX-2 = experiment: inhibition of COX-2 enzymatic activity (PGE2 by EIA); assay type: biochemical; conditions: purified enzyme from ewe placenta, mean ± standard deviation, 4 determinations
# Procedure: as §1
Compound,Analgesic activity % inhibition ([1]; 30 mg/kg) [%],% inhibition of COX-1 activity (COX-1; 10^-5 M) [%],% inhibition of COX-1 activity (COX-1; 10^-7 M) [%],Anti-inflammatory activity % inhibition ([2]; 30 mg/kg) [%],% inhibition of COX-2 activity (COX-2; 10^-5 M) [%],% inhibition of COX-2 activity (COX-2; 10^-7 M) [%],Analgesic activity % inhibition ([1]; 100 mg/kg) [%],Anti-inflammatory activity % inhibition ([2]; 100 mg/kg) [%]
"CCOC(=O)/C(CCO)=C(/c1ccc(S(C)(=O)=O)cc1)c1cc(Cl)cc(Cl)c1 [Example 14, Ethyl (Z)-3-(3,5-dichlorophenyl)-3-(4-methanesulphonylphenyl)-2-(2-hydroxyethyl)prop-2-enoate]",45.8 ± 10.9,0 ± 0,0 ± 0,28.9 ± 4.5,80 ± 2,16 ± 9,–,–
"CS(=O)(=O)c1ccc(/C(=C(\CCO)C(=O)[O-])c2ccc(Cl)c(Cl)c2)cc1.[Na+] [Example 27, Sodium (Z)-3-(3,4-dichlorophenyl)-3-(4-methanesulphonylphenyl)-2-(2-hydroxyethyl)prop-2-enoate]",–,–,–,–,–,–,63.6 ± 13.2,32.4 ± 8.2
